Measurements: article PMC3968014, “Design and Synthesis of a Library of Lead-Like 2,4-Bisheterocyclic Substituted Thiophenes as Selective Dyrk/Clk Inhibitors” (PLoS ONE, 2014)
“And” between values parts separate entries of the source, which are not always exact repeats. Equal entries are not always repeated. Where two headings read alike, the source gives them in different places.

What was measured:
Dyrk1A = biological target: T1, Dyrk1A (Homo sapiens, UniProt Q13627); assay: Dyrk1A kinase assay (32P-ATP, Woodtide); format: biochemical; details: for IC50: 100 µM ATP; for inhibition at 5 µM: read-out: percentage of inhibition Dyrk1A
T1 construct: encoding the catalytic domain of human Dyrk1A; thrombin cleavage site (N); made in house; host or cells: Escherichia coli BL21(DE3) with pRARE

Dyrk1B = biological target: T2, Dyrk1B (Homo sapiens, UniProt Q9Y463); assay: Dyrk1B kinase assay (32P-ATP, Woodtide); format: biochemical; details: for IC50: 100 µM ATP; for inhibition at 5 µM: read-out: percentage of inhibition Dyrk1B; for Kd: calculated with Cheng-Prussoff equation, KM ATP 59 µM
T2 construct: purchased Life Technologies PV4649 (LOT # 877059G)

CK2α = biological target: T3, CK2α (Homo sapiens, UniProt P68400); assay: CK2α kinase assay (counter screen); format: biochemical; details: for inhibition at 5 µM: read-out: percentage of inhibition CK2α
T3 construct: purchased Life Technologies (Invitrogen SelectScreen); Dyrk1A, Dyrk2 and CK2α in-house or gifts
Procedure: Dyrk1A, Dyrk1B, Dyrk2, CK2α and Clk1 kinase reactions were performed in a reaction buffer containing 50 mM Tris/HCl, pH 7.4, 0.1 mM EGTA, 0.5 mM DTT, 10 mM MgCl2, 100 µM ATP and 0.33 µM [γ-^32ATP] as well as the appropriate substrate peptides, which were 100 µM Woodtide for the Dyrk isoforms ([…]-NH2), 60 µM CK2 substrate peptide ([…]-NH2, from Millipore) for CK2α or RS repeat peptide ([…]) for Clk1. The CK2α protein was a kind gift of M. Montenarh (Homburg). The kinase reactions were performed at 30°C for 15 min and terminated by spotting 5 µL of the reaction mixture onto a P81 phosphocellulose membrane (Whatman). The membrane was washed four times with 0.3% phosphoric acid and one time with acetone and dried. The dry membrane was exposed in a cassette to a Phosphor Screen Imaging Plate (FujiFilm) and the signals detected by scanning of the imaging plate in a Fuji FLA-3000 PhosphoImager. The spots were quantified using AIDA software (Raytest, Version 3.52) to determine the activities of the kinases in the assay reactions. […] IC50 values were calculated by fitting the data with Origin Pro 8.6 (OriginLabs). The calculated IC50 values are representative of at least two independent determinations.

Clk1 = Clk1 (Homo sapiens, UniProt P49759); assay: Clk1 kinase assay (RS repeat peptide); format: biochemical; details: for IC50: 100 µM ATP; for inhibition at 5 µM: read-out: % inhibition Clk1
Clk3 = biological target: T4, Clk3 (Homo sapiens, UniProt P49761); assay: Selectivity panel Clk3; format: biochemical; details: 5 µM inhibitor
T4 construct: purchased Life Technologies (Invitrogen SelectScreen); Dyrk1A, Dyrk2 and CK2α in-house or gifts

HIPK1 = biological target: T5, HIPK1 (Homo sapiens, UniProt Q86Z02); assay: Selectivity panel HIPK1; format: biochemical; details: 5 µM inhibitor
T5 construct: purchased Life Technologies (Invitrogen SelectScreen); Dyrk1A, Dyrk2 and CK2α in-house or gifts

CDK5 = biological target: T6, CDK5 (Homo sapiens, UniProt Q00535); assay: Selectivity panel CDK5; format: biochemical; details: 5 µM inhibitor
T6 construct: purchased Life Technologies (Invitrogen SelectScreen); Dyrk1A, Dyrk2 and CK2α in-house or gifts

GSK3β = biological target: T7, GSK3β (Homo sapiens, UniProt P49841); assay: Selectivity panel GSK3β; format: biochemical; details: 5 µM inhibitor
T7 construct: purchased Life Technologies (Invitrogen SelectScreen); Dyrk1A, Dyrk2 and CK2α in-house or gifts

PKCβ = biological target: T8, PKCβ (Homo sapiens, UniProt P05771); assay: Selectivity panel PKCβ; format: biochemical; details: 5 µM inhibitor
T8 construct: purchased Life Technologies (Invitrogen SelectScreen); Dyrk1A, Dyrk2 and CK2α in-house or gifts

PIM1 = PIM1 (Homo sapiens, UniProt P11309); assay: Selectivity panel PIM1; format: biochemical; details: for inhibition at 5 µM: 5 µM inhibitor
PRKD2 (PKD2) = biological target: T9, PRKD2 (PKD2) (Homo sapiens, UniProt Q9BZL6); assay: Selectivity panel PRKD2; format: biochemical; details: 5 µM inhibitor
T9 construct: purchased Life Technologies (Invitrogen SelectScreen); Dyrk1A, Dyrk2 and CK2α in-house or gifts
T9 sequence (Q9BZL6 1-878): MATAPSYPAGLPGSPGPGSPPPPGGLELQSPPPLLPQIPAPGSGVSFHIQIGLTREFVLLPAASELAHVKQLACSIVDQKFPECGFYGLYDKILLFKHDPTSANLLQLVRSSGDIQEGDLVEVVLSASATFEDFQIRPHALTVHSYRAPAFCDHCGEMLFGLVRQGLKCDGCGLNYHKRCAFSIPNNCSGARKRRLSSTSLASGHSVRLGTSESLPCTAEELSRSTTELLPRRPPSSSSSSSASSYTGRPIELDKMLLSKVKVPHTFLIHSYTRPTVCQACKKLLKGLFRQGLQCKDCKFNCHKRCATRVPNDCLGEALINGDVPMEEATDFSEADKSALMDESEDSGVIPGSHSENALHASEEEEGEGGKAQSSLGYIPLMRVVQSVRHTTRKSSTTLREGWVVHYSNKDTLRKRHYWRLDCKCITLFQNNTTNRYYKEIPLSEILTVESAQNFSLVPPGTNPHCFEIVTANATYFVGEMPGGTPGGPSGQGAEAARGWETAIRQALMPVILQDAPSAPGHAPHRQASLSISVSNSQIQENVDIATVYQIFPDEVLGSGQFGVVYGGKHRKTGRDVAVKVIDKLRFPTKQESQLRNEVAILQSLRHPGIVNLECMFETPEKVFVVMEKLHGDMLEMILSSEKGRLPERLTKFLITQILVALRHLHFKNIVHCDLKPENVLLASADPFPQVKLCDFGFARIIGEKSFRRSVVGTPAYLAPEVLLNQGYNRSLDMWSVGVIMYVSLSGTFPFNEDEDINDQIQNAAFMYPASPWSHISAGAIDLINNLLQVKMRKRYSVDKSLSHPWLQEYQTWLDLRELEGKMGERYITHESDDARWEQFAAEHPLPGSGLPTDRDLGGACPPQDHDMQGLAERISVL

Ck1δ = biological target: T10, Ck1δ (Homo sapiens, UniProt P48730); assay: Selectivity panel Ck1δ; format: biochemical; details: 5 µM inhibitor
T10 construct: purchased Life Technologies (Invitrogen SelectScreen); Dyrk1A, Dyrk2 and CK2α in-house or gifts

MLK1 = biological target: T11, MLK1 (Homo sapiens, UniProt P80192); assay: Selectivity panel MLK1; format: biochemical; details: 5 µM inhibitor
T11 construct: purchased Life Technologies (Invitrogen SelectScreen); Dyrk1A, Dyrk2 and CK2α in-house or gifts

EGFR = biological target: T12, EGFR (Homo sapiens, UniProt P00533); assay: Selectivity panel EGFR; format: biochemical; details: 5 µM inhibitor
T12 construct: purchased Life Technologies (Invitrogen SelectScreen); Dyrk1A, Dyrk2 and CK2α in-house or gifts

ROS = biological target: T13, ROS (Homo sapiens, UniProt P08922); assay: Selectivity panel ROS; format: biochemical; details: 5 µM inhibitor
T13 construct: purchased Life Technologies (Invitrogen SelectScreen); Dyrk1A, Dyrk2 and CK2α in-house or gifts

TrkB = biological target: T14, TrkB (Homo sapiens, UniProt Q16620); assay: Selectivity panel TrkB; format: biochemical; details: 5 µM inhibitor
T14 construct: purchased Life Technologies (Invitrogen SelectScreen); Dyrk1A, Dyrk2 and CK2α in-house or gifts

[1] = Metabolic Stability Assay; details: male, Sprague-Dawley, rat, liver microsomes

T10 sequence (P48730 whole entry): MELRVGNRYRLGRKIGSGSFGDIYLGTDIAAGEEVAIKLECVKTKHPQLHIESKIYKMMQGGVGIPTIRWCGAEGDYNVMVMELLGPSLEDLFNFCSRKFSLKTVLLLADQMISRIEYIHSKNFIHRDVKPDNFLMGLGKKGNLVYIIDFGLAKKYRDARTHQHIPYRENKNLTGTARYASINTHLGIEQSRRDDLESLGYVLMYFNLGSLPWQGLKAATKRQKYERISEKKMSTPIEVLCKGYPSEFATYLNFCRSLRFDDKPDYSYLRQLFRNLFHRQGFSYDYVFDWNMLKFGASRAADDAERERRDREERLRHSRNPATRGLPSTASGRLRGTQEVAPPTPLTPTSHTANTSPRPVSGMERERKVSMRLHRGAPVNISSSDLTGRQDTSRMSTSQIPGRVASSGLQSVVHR
Chain of Clk1 (P49759 whole entry): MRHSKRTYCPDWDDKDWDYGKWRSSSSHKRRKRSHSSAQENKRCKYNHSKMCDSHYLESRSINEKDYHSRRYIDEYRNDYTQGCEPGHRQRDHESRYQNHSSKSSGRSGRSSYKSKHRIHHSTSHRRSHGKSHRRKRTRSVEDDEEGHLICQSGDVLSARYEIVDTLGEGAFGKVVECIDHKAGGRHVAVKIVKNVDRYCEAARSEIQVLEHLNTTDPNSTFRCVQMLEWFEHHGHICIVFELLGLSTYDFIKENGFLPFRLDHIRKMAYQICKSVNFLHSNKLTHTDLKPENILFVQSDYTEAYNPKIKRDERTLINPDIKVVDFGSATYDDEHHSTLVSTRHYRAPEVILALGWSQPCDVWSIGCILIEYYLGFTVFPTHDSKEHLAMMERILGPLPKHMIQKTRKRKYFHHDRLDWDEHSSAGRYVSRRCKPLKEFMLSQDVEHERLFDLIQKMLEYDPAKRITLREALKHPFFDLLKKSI
T6 sequence (Q00535 whole entry): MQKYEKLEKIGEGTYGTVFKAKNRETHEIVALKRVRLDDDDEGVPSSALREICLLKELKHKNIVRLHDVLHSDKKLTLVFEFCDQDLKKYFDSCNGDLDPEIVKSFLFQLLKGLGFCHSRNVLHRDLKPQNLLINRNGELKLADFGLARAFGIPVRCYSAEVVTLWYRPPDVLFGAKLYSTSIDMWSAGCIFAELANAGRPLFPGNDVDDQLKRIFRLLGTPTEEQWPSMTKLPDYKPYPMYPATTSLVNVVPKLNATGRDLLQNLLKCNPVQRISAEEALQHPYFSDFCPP
T6 sequence (Q15078 whole entry partner): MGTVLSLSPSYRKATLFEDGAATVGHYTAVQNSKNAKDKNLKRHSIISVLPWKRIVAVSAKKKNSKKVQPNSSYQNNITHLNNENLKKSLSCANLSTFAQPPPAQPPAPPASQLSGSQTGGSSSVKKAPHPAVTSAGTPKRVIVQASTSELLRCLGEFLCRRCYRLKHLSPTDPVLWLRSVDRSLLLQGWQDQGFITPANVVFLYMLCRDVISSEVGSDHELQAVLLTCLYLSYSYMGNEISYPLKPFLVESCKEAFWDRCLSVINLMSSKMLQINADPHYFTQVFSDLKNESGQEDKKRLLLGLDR
Chain of PIM1 (P11309 whole entry): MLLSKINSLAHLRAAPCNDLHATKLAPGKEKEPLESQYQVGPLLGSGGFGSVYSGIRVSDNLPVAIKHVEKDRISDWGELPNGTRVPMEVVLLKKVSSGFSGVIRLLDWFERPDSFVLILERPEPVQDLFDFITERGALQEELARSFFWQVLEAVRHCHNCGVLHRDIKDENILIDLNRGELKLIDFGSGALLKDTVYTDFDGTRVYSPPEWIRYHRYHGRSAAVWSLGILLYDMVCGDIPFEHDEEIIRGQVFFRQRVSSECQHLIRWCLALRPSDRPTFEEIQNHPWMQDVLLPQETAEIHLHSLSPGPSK
T5 sequence (Q86Z02 whole entry): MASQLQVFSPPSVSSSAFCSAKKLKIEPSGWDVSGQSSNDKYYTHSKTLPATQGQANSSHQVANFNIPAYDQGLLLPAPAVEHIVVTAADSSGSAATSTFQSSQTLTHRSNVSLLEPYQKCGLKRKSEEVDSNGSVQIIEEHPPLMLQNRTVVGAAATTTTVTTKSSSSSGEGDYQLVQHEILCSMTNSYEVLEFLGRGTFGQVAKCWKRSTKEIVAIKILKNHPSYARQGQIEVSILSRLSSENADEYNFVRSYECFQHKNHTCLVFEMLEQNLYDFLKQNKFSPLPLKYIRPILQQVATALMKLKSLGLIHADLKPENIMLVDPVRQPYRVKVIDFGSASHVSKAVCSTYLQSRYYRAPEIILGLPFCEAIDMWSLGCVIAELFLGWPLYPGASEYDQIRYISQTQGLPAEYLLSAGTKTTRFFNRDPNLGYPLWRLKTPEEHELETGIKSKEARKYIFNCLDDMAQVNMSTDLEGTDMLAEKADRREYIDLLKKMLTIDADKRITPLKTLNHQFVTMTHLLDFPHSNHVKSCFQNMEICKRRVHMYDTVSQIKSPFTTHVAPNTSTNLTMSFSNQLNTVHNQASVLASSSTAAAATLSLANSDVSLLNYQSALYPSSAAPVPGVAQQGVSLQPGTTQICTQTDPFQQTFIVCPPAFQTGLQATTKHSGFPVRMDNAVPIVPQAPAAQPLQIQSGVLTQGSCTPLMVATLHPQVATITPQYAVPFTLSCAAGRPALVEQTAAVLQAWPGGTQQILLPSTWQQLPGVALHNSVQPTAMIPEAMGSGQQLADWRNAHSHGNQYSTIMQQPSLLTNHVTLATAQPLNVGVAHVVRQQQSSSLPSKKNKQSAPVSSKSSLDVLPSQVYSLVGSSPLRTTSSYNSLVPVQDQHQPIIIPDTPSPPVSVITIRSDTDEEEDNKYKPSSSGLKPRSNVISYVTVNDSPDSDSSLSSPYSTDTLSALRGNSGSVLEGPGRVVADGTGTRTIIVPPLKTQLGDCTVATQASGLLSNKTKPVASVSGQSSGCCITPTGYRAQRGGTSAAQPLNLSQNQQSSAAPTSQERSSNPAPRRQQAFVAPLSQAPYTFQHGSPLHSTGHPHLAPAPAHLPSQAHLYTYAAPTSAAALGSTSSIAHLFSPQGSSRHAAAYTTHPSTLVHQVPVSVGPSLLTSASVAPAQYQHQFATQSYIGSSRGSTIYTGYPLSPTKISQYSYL
T4 sequence (P49761 whole entry): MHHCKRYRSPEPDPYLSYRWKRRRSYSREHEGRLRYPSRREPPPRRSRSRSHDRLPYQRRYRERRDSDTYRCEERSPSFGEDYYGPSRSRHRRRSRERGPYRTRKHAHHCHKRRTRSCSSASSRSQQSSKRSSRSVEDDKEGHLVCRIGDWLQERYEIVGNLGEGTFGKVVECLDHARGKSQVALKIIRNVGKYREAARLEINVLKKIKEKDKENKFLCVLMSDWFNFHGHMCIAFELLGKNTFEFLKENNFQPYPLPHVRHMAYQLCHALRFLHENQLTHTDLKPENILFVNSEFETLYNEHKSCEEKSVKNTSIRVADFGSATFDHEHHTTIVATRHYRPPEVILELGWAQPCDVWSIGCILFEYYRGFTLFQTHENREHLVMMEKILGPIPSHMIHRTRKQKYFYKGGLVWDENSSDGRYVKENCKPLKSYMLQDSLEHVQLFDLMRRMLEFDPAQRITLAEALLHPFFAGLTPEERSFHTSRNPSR
T11 sequence (P80192 whole entry): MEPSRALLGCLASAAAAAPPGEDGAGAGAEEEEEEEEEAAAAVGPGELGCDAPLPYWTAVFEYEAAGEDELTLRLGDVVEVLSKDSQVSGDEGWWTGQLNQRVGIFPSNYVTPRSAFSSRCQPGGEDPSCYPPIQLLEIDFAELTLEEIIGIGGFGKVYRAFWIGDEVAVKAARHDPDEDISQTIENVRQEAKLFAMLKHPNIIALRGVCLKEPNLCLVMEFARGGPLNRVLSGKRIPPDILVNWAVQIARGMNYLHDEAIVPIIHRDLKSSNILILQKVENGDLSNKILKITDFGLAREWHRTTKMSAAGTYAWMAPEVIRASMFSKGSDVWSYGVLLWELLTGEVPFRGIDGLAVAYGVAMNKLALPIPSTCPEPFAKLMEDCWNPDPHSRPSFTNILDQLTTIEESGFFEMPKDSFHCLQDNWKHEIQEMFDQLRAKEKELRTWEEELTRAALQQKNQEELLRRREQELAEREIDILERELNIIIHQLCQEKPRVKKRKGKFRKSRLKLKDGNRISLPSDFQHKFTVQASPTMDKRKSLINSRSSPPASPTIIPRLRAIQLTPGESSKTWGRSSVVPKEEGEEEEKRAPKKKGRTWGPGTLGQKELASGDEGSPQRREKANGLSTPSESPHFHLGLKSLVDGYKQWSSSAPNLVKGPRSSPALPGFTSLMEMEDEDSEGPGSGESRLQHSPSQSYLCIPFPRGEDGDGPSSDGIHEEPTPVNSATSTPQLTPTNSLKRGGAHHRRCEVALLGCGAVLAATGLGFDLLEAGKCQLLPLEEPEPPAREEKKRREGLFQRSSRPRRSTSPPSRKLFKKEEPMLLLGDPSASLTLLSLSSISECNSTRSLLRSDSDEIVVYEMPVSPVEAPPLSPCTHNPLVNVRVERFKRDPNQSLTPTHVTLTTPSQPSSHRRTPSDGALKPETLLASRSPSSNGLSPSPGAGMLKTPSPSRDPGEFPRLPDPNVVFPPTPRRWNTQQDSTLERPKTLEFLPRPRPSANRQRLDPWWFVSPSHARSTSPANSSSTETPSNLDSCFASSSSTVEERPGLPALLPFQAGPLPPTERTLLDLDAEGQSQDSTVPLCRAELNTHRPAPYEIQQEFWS
T3 sequence (P68400 whole entry): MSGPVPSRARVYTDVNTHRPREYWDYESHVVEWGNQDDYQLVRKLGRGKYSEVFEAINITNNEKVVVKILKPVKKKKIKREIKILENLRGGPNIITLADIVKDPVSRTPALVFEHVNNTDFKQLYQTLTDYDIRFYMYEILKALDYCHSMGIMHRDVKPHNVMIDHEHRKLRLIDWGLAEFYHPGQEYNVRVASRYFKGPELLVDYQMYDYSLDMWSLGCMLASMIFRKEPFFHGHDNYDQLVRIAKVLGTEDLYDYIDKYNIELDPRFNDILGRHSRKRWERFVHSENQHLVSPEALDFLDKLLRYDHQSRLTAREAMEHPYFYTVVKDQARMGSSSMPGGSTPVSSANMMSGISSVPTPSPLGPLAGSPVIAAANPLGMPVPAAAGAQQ

IC50 (Dyrk1A) | inhibition at 5 µM (Dyrk1A) | IC50 (Dyrk1B) | inhibition at 5 µM (Dyrk1B) | inhibition at 5 µM (CK2α) | IC50 (Clk1) | inhibition at 5 µM (Clk1; at 5 µM) | inhibition at 5 µM (Clk3) | inhibition at 5 µM (HIPK1) | inhibition at 5 µM (CDK5) | inhibition at 5 µM (GSK3β) | inhibition at 5 µM (PKCβ) | inhibition at 5 µM (PIM1) | inhibition at 5 µM (PRKD2 (PKD2)) | inhibition at 5 µM (Ck1δ) | inhibition at 5 µM (MLK1) | inhibition at 5 µM (EGFR) | inhibition at 5 µM (ROS) | inhibition at 5 µM (TrkB) | melting point | SMILES | further results
900 nM and 880 nM | 85% | 1800 nM | 70% | 0% | 610 nM | 86% | 5% | 9% | 14% | 14% | -7% | 14% | 0% | 0% | 3% | 4% | 0% | 22% | 173 to 174 °C | c1cncc(-c2csc(-c3cncnc3)c2)c1 [Compound 41, 5-[4-(pyridin-3-yl)thiophen-2-yl]pyrimidine] | 
800 nM and 810 nM | 84% | 1000 nM | 83% | 0% | 420 nM | 88% | 5% | 7% | 23% | 10% | -18% | 51% | 0% | 0% | 0% | 0% | 2% | 23% | 86 to 87 °C | c1cncc(-c2csc(-c3cnco3)c2)c1 [Compound 33, 3-[5-(1,3-oxazol-5-yl)thiophen-3-yl]pyridine] | IC50 (PIM1): ~5000 nM

Further lines, the compound ahead of its results:

SMILES | IC50 (Dyrk1A) | inhibition at 5 µM (Dyrk1A) | IC50 (Dyrk1B) | inhibition at 5 µM (Dyrk1B) | inhibition at 5 µM (CK2α) | IC50 (Clk1) | inhibition at 5 µM (Clk1; at 5 µM) | inhibition at 5 µM (Clk3) | inhibition at 5 µM (HIPK1) | inhibition at 5 µM (CDK5) | inhibition at 5 µM (GSK3β) | inhibition at 5 µM (PKCβ) | inhibition at 5 µM (PIM1) | inhibition at 5 µM (PRKD2 (PKD2)) | inhibition at 5 µM (Ck1δ) | inhibition at 5 µM (MLK1) | inhibition at 5 µM (EGFR) | inhibition at 5 µM (ROS) | inhibition at 5 µM (TrkB) | melting point | further results
c1cncc(-c2csc(-c3cncs3)c2)c1 [Compound 48, 3-[5-(1,3-thiazol-5-yl)thiophen-3-yl]pyridine] | 100 nM | 97% | 70 nM | 100% | 0% | 110 nM | 94% | 31% | 9% | 44% | 25% | 1% | 51% | 0% | 1% | 17% | 15% | 0% | 0% | 69 to 70 °C | Kd (Dyrk1A; calculated with Cheng-Prussoff equation, KM ATP 64 µM): 39 nM; Kd (Dyrk1B): 26 nM; IC50 (PIM1): ~5000 nM; CLhep predicted at 0.5 µM [1]: 47 mL/min/kg; half-life at 0.5 µM [1]: 31 min
Cn1cc(-c2csc(-c3cccnc3)c2)cn1 [Compound 30, 3-[4-(1-methyl-1H-pyrazol-4-yl)thiophen-2-yl]pyridine] |  |  | 400 nM and 410 nM | 100% | 9.5% | 160 nM | 92% | 17% | 8% | 33% | 17% | -8% | 52% | -8% | -1% | 16% | 5% | 4% | -5% | 119 to 120 °C | Kd (Dyrk1B): 148 nM; percentage of inhibition CK2α (CK2α; at 5 µM): 10%; IC50 (PIM1): ~5000 nM; CLhep predicted at 0.5 µM [1]: 34 mL/min/kg; half-life at 0.5 µM [1]: 53 min
c1cncc(-c2cc(-c3cncs3)cs2)c1 [Compound 29, 3-[4-(1,3-thiazol-5-yl)thiophen-2-yl]pyridine] |  |  |  |  | 0% |  |  | 12% | 4% | 39% | 0% | -7% | 22% | 0% | 0% | 15% | 0% | 0% | 24% | 114 to 115 °C | inhibition at 5 µM (Clk1): 96%; CLhep predicted at 0.5 µM [1]: 49 mL/min/kg; half-life at 0.5 µM [1]: 27 min
